The values that follow come from patent publication US6630331B1, “Herbicides test method” (Hoechst Schering AgrEvo GmbH, priority 1997, dated 2003).

In series [1] the target is T1, recombinant Lotus pantothenate synthetase (Lotus japonicus, UniProt O24035). Kind of series: Activity of recombinant Lotus pantothenate synthetase in the presence of potential effectors. The class given is biochemical. Set-up: the processed recombinant protein (3-proline through 308-leucine) has a theoretical mass of 34,037.7 Da; made in house; host or cells: E. coli AT1371 (panC) transformed with pSKL. To be noted: for Final activity [%]: effector 1 mM, pantoate 0.1 mM, β-alanine 1.0 mM, % of activity without effector. The method, then: 2. The preferred assay mixture to measure the pyrophosphate liberated in the PS reaction after its conversion with inorganic pyrophosphatase to inorganic phosphate comprises 100 μmol Tris.HCl (pH 8.0), 10 μmol MgSO4, 5 μmol ATP, 10 μmol […], […], 1.0 unit […] After a suitable incubation period the PS reaction is terminated either
(§1) a) by the addition of 100 μlof a reagent mixture comprising 62.3 µg malachite green hydrochloride, 1.9 mg ammoniumheptamolybdate and 0.5% (v/v) of a suitable detergent (for example Triton X-100, Tween-80 or Tergitol NPX) in 1.88 N hydrochloric acid. The resulting colour complex is stabilised by the addition after 1 minute of 50 μl of a 26% (w/v) solution of trisodium citrate dihydrate in water and after an additional 45 minutes incubation at room temperature the intensity of the colour complex is determined by measuring the extinction at 620 nm. The amount of inorganic phosphate liberated in the PS reaction is determined by reference to a standard curve generated from suitable amounts of inorganic phosphate by using the difference of extinction at 620 nm between a complete PS assay mixture and a PS assay mixture lacking pantoate. Since there are 2 molecules of inorganic phosphate liberated for every molecule of pyrophosphate formed in the PS reaction, one unit of PS activity is defined as the amount of enzyme producing 2 nmoles of inorganic phosphate per minute, and specific activity is expressed as units per milligram of protein; or
Among these compounds are the intermediates of pantothenate biosynthesis as well as coenzyme A. As coenzyme A plays a prominent role in fatty acid synthesis and degradation, various acyl forms of coenzyme A and free fatty acids were also included. […] Table 7 lists the compounds tried and their effect on PS activity which is expressed percentage of activity in an assay without additions.

For series [2], the target named is T1, recombinant Lotus pantothenate synthetase. The series can be described thus: Steady state kinetics of recombinant Lotus pantothenate synthetase. Here is the method: (§2) 2. The preferred assay mixture to measure the pyrophosphate liberated in the PS reaction after its conversion with inorganic pyrophosphatase to inorganic phosphate comprises 100 μmol Tris.HCl (pH 8.0), 10 μmol MgSO4, 5 μmol ATP, 10 μmol […], 0.5 μmol pantoate, 1.0 unit yeast inorganic pyrophosphatase and pantothenate synthetase in a total volume of 100 μl. After a suitable incubation period the PS reaction is terminated either
as §1
Km and Vmax constants for pantoate and […] were determined by measuring the effect of substrate concentration on the reaction rate.

In series [3] the target is T2, recombinant L. japonicus pantothenate synthetase (Lotus japonicus, UniProt O24035).
T2 construct: the processed recombinant protein (3-proline through 308-leucine) has a theoretical mass of 34,037.7 Da; made in house; host or cells: E. coli AT1371 (panC) transformed with pSKL
T2 sequence (O24035 3-308): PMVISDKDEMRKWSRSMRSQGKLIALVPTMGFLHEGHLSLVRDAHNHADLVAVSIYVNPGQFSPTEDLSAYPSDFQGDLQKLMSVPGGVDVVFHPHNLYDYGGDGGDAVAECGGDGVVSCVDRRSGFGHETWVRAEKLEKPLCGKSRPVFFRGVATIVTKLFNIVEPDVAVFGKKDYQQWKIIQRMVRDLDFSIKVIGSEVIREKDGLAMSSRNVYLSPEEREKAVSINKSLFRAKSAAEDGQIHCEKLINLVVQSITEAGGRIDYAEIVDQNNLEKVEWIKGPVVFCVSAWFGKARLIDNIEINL
Kind of series: Substrate specificity of recombinant L. japonicus pantothenate synthetase. The class given is biochemical. The settings on record: for yield (%): relative to standard assay; for inhibition: analogue at 10-fold excess over pantoate. The method, then:
as §2
as §1, with “protein; or […]” for “protein; or”

The target of another series is purified E. coli PS (Escherichia coli, UniProt P31663). The settings on record: cited from earlier work.
Substrate in series [4]: CC(C)(CO)[C@@H](O)C(=O)O
The series can be described thus: purified protein, by the assay type. To be noted: pH 8.0.

Substrate in series [5]: NCCC(=O)O
Kind of series: purified protein, by the assay type. To be noted: pantoate at 0.5 mM const., pH 8.0.

Where [6] appears, read: analogue 1.0 mM added to pantoate 0.1 mM and β-alanine 1 mM.
Setting [7] is: analogue 1.0 mM in place of pantoate, β-alanine 1 mM.
Where [8] appears, read: analogue 10 mM in place of pantoate, β-alanine 1 mM.
Where [9] appears, read: other: Eadie-Hofstee (EH), β-alanine at 20 mM const.
Where [10] appears, read: other: Lineweaver-Burk (LB), β-alanine at 20 mM const.
The mark [11] stands for this setting: other: fit of rate equation for uncompetitive substrate inhibition.

purified E. coli PS, sequence (P31663 whole entry): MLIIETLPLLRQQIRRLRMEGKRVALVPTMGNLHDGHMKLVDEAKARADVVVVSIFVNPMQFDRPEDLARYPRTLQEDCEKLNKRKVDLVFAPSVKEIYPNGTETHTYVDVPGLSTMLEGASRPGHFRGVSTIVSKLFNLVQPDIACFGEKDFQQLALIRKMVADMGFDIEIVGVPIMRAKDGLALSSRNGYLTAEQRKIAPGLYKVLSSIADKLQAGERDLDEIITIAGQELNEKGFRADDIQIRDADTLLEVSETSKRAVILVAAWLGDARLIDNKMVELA

On to `CC(C)(COP(=O)(O)OP(=O)(O)OC[C@H]1O[C@@H](n2cnc3c(N)ncnc32)[C@H](O)[C@@H]1OP(=O)(O)O)[C@@H](O)C(=O)NCCC(=O)NCCSC(=O)CC(=O)O` [Malonyl-coA], for which the activity at 100 µM in series [1] (read-out: Final activity [%]) came out at 92%.

Consider `CC(C)(CO)[C@@H](O)C(=O)NCCC(=O)O` [Pantothenate], for which the activity at 1000 µM in series [1] (read-out: Final activity [%]) was determined as 98%.

As for `CC(C)(CO)[C@@H](O)C(=O)O` [Pantoate, (R)-pantoate], the optimal pantoate concentration in series [2] (calculated from rate equation with fitted KS and K′S) was 470 ± 30 µM. Further, the “K′S” value in series [2] (fit of rate equation for uncompetitive substrate inhibition) was 5.33 ± 0.34 mM. The kcat in series [2] (from Vmax of the uncompetitive substrate inhibition fit) was found to be 0.625 ± 0.011 s⁻¹. For the same molecule, the “pantoate concentration at which substrate inhibition becomes significant” value in series [2] (substrate inhibition of Lotus PS) is not below 400 µM.

As for `CCCCCCCCCCCCCCCC(=O)O` [Palmitic acid], in series [1] (read-out: Final activity [%]), the activity at 2 µM was 133%, the activity at 15 µM came out at 135% and the activity at 60 µM came to 115%.

In the case of `O=P(O)(O)OP(=O)(O)O` [Pyrophosphate], in series [1], the “Final activity [%]” value stood at 78%.

For `CC(C)(COP(=O)(O)OP(=O)(O)OC[C@H]1O[C@@H](n2cnc3c(N)ncnc32)[C@H](O)[C@@H]1OP(=O)(O)O)[C@@H](O)C(=O)NCCC(=O)NCCS` [CoenzymeA], in series [1] (read-out: Final activity [%]), the activity at 100 µM was determined as 100%, the activity at 200 µM worked out at 106% and the activity at 1000 µM is 109%.

In the case of `CC(C)(CO)C(=O)C(=O)O` [Ketopantoate, ketopantoate], in series [3], the “activity as substrate in the place of pantoate” value is “not active as substrates” and the inhibition entry is “did not effect significant inhibition”. Also, in series [3] (setting [6]), the “activity (units)” value was determined as 12.18 units and the “yield (%)” value is 97%. In series [3] (setting [7]), the “activity (units)” value was found to be 0 units and the “yield (%)” value stood at 0%. Besides, in series [3] (setting [8]), the “activity (units)” value was 0 units and the “yield (%)” value is listed as 0%. In series [1], the “Final activity [%]” value is given as 97%.

For the molecule `CC(C)C(=O)C(=O)O` [a-KIVA], in series [1], the “Final activity [%]” value came to 89%.

`CC1(C)COC(=O)[C@@H]1O` [Pantoyl-lactone, pantoyl-lactone]: at purified E. coli PS, the activity toward pantoyl-lactone result is recorded as “no activity”. In addition, in series [3], the “activity as substrate in the place of pantoate” value was “not active as substrates” and the inhibition result is on record as “did not effect significant inhibition”. Besides, in series [3] (setting [6]), the “activity (units)” value was determined as 11.53 units and the “yield (%)” value came out at 92%. For the same molecule, in series [3] (setting [7]), the “activity (units)” value is listed as less than 0.1 units and the “yield (%)” value is given as less than 1%. For the same molecule, in series [3] (setting [8]), the “activity (units)” value turned out to be 0.15 units and the “yield (%)” value was 1%. Further, in series [1], the “Final activity [%]” value is 92%.

On to `CCCCCC/C=C\CCCCCCCC(=O)O` [Palmitoleic acid], for which, in series [1] (read-out: Final activity [%]), the activity at 20 µM was 116% and the activity at 100 µM amounted to 100%.

With `CCCCCCCC/C=C\CCCCCCCC(=O)SCCNC(=O)CCNC(=O)[C@H](O)C(C)(C)COP(=O)(O)OP(=O)(O)OC[C@H]1O[C@@H](n2cnc3c(N)ncnc32)[C@H](O)[C@@H]1OP(=O)(O)O` [Oleoyl-coA], the activity at 24 µM in series [1] (read-out: Final activity [%]) was found to be 108%.

For `CC(=O)SCCNC(=O)CCNC(=O)[C@H](O)C(C)(C)COP(=O)(O)OP(=O)(O)OC[C@H]1O[C@@H](n2cnc3c(N)ncnc32)[C@H](O)[C@@H]1OP(=O)(O)O` [Acetyl-coA], the activity at 100 µM in series [1] (read-out: Final activity [%]) was determined as 93%.

With `CCCCCC/C=C\CCCCCCCC(=O)SCCNC(=O)CCNC(=O)[C@H](O)C(C)(C)COP(=O)(O)OP(=O)(O)OC[C@H]1O[C@@H](n2cnc3c(N)ncnc32)[C@H](O)[C@@H]1OP(=O)(O)O` [Palmitoleoyl-coA], the activity at 22 µM in series [1] (read-out: Final activity [%]) is 114%.

B1: recombinant Lotus pantothenate synthetase (Lotus japonicus) (protein)
chain: T2 sequence (O24035 3-308)
With B1, the Km was 44 (EH) μM in series [4] (setting [9]); 45 (LB) μM in series [4] (setting [10]); 42 ± 2 µM in series [4] (setting [11]); 986 (EH) μM in series [5] (other: Eadie-Hofstee (EH)); 990 (LB) μM in series [5] (other: Lineweaver-Burk (LB)). Further, the Vmax in series [4] (setting [9]) is reported as 10.98 (EH); in series [4] (setting [10]) it was 11.36 (LB); in series [4] (setting [11]) it was 11.03±0.19 units; in series [5] (other: Eadie-Hofstee (EH)), 9.51 (EH); in series [5] (other: Lineweaver-Burk (LB)), 9.52 (LB). For the same molecule, the kcat in series [4] (setting [10]) turned out to be 0.63 s⁻¹; in series [5] (other: Lineweaver-Burk (LB)), 0.54 s⁻¹.

A word on the kcat: it is the number of substrate molecules converted per active site and unit of time at saturation.
